Measured values: patent US20240215584A1, “ARTICLE HAVING ANTIVIRAL PROPERTIES, ARTICLE HAVING ANTIMICROBIAL PROPERTIES, AND ARTICLE HAVING ANTIFUNGAL PROPERTIES” (NATIONAL INSTITUTE OF ADVANCED INDUSTRIAL SCIENCE AND …, priority 2021, published 2024)
Values after ≈ are worked out from the molar mass of the structure shown. Like-named read-outs stand apart in the source and are kept apart here.

Assays:
[1] = tested on: vancomycin moderate resistant Staphylococcus aureus Mu50; experiment: Minimum inhibitory concentration on bacteria; settings: 20 h, read-out: minimum inhibitory concentration (MIC)
Protocol: (§1) First, a method for measuring the minimum inhibitory concentration on the bacteria will be described. First, 100 μL per hole of a 96-hole test plate was prepared using a Mueller Hinton medium (CAMHB) (and blood added as needed) supplemented with 20 mg/L of Ca^2+ and 10 mg/L of Mg^2+ to give a 2-fold dilution series. […] Each bacterium was cultured in CAMHB (blood added as needed) and added to each of the holes of the test plate at approximately 10000 CFU/mL. The cultures were cultivated at 37° C. for 20 hours, and growth of the bacteria was visually confirmed, and the lowest concentration without growth of the bacteria was defined as the minimum inhibitory concentration (MIC: Minimum Inhibitory Concentration).
(§2) As the bacteria, methicillin-sensitive Staphylococcus aureus 209P, methicillin-resistant Staphylococcus aureus N3115, methicillin-resistant Staphylococcus aureus OM584, vancomycin moderate resistant Staphylococcus aureus Mu50, Pseudomonas aeruginosa wild strain PAO1, Pseudomonas aeruginosa resistance gene quadruple disruption strain YM64, Fecaris ATCC29212, Vancomycin-resistant Fecaris ATCC51299, and Vancomycin-resistant Fecaris NCTC12201 were used.
(§3) Minimum inhibitory concentrations (MIC) were measured against drug-sensitive bacteria and drug-resistant bacteria.

[2] = tested on: methicillin-sensitive Staphylococcus aureus 209P; experiment: Minimum inhibitory concentration on bacteria; settings: 20 h, read-out: minimum inhibitory concentration (MIC)
Protocol: (§4) First, 100 μL per hole of a 96-hole test plate was prepared using a Mueller Hinton medium (CAMHB) (and blood added as needed) supplemented with 20 mg/L of Ca^2+ and 10 mg/L of Mg^2+ to give a 2-fold dilution series. […] Each bacterium was cultured in CAMHB (blood added as needed) and added to each of the holes of the test plate at approximately 10000 CFU/mL. The cultures were cultivated at 37° C. for 20 hours, and growth of the bacteria was visually confirmed, and the lowest concentration without growth of the bacteria was defined as the minimum inhibitory concentration (MIC: Minimum Inhibitory Concentration).
as §2

[3] = tested on: methicillin-resistant Staphylococcus aureus N3115; experiment: Minimum inhibitory concentration on bacteria; settings: 20 h, read-out: minimum inhibitory concentration (MIC)
Protocol: as §4, §2

[4] = tested on: Vancomycin-resistant Fecaris ATCC51299; experiment: Minimum inhibitory concentration on bacteria; settings: 20 h, read-out: minimum inhibitory concentration (MIC)
Protocol: as §1, §2, §3

[5] = tested on: Vancomycin-resistant Fecaris NCTC12201; experiment: Minimum inhibitory concentration on bacteria; settings: 20 h, read-out: minimum inhibitory concentration (MIC)
Protocol: as §4, §2

Fecaris ATCC29212 = experiment: Minimum inhibitory concentration on bacteria; settings: 20 h, read-out: minimum inhibitory concentration (MIC)
Protocol: as §1, §2, §3

[6] = tested on: Pseudomonas aeruginosa wild strain PAO1; experiment: Minimum inhibitory concentration on bacteria; settings: PAO1, 20 h, read-out: minimum inhibitory concentration (MIC)
[7] = tested on: methicillin-resistant Staphylococcus aureus OM584; experiment: Minimum inhibitory concentration on bacteria; settings: 20 h, read-out: minimum inhibitory concentration (MIC)
Protocol: as §1, §2, §3

[8] = Residual amount on SUS substrate after ultrasonic cleaning in water; type: physicochemical; settings: 125 μg/cm^2 applied on SUS substrate
Protocol: First, chlorhexidine was dissolved in acetone so as to be 1 mg/mL. […] Chlorhexidine gluconate was dissolved in acetone so as to be 1 mg/mL. […] Subsequently, the concentration of chlorhexidine and the concentration of chlorhexidine gluconate eluted in water were measured by UV-Vis (colorimetric method), and an amount of chlorhexidine and an amount of chlorhexidine gluconate remaining on the substrate were back-calculated from the concentration.

[9] = tested on: sheep defibrillated blood (red blood cells); settings: 30 min, pH 7.4
Protocol: 25 μL of sheep defibrillated blood, a Tyrode solution (NaCl 137 mM, KCl 2.7 mM, CaCl2) 1.0 mM, HEPES 10 mM (pH7.4)), and chlorhexidine gluconate or chlorhexidine solution were mixed. A mixture of 25 μL of sheep defibrillated blood and 975 μL of a Tyrode solution was used as a control, and a mixture of 25 μL of sheep defibrillated blood and 975 μL of purified water was used as a complete hemolysis. The mixtures were left standing at 37° C. for 30 minutes. Thereafter, the mixed liquid is centrifuged, and the supernatant is collected. Absorbance at 545 nm was measured. A hemolysis rate was calculated according to the following formula.

[10] = Calcein efflux rate, viral composition artificial membrane (liposomes); settings: for Calcein Efflux Rate (%) Virus Composition Artificial Membrane: 30° C., 30 minutes
Candida ATCC12201 = experiment: Minimum inhibitory concentration on fungi; type: cell-based; settings: Candida ATCC12201, RPMI1640, 37 °C, 48 hours
Protocol: The bacteria were cultured in the RPMI1640 and added to each of the holes of the test plate at approximately 200 CFU/mL. The cultures were cultivated at 37 °C for 48 hours, and the growth of the bacteria was visually confirmed, and the minimum concentration without the growth of the bacteria was referred as MIC. Candida ATCC12201 was used as the fungi. […] The minimum inhibitory concentration (MIC) was measured against Candida.

[11] = Calcein efflux rate, bacterial composition artificial membrane (liposomes); settings: for Calcein Efflux Rate (%) Bacterial Composition Artificial Membrane: 30° C., 30 minutes
[12] = 2 minutes ultrasonic cleaning in 60 ml of water at 25° C.
[13] = 10 minutes ultrasonic cleaning in 60 ml of water at 25° C.

SMILES | MIC [1] [µg/mL] | MIC [2] [µg/mL] | MIC [3] [µg/mL] | MIC [4] [µg/mL] | MIC [5] [µg/mL] | MIC (Fecaris ATCC29212) [µg/mL] | MIC [6] [µg/mL] | MIC [7] [µg/mL] | residual amount on substrate [8, 12] [μg/cm^2] | residual amount on substrate [8, 13] | MIC (Candida ATCC12201) [µg/mL] | other results
CCn1cc(C(=O)O)c(=O)c2cc(F)c(N3CCNCC3)cc21 [Norfloxacin, norfloxacin] | ≥ 64 | 2 (≈ 6.26 µM) | 4 (≈ 12.5 µM) | 8 (≈ 25.1 µM) | 16 (≈ 50.1 µM) | 16 (≈ 50.1 µM) | 2 (≈ 6.26 µM) | ≥ 64 |  |  |  | 
[H]/N=C(\N/C(=N/[H])NCCCCCCNC(=N)NC(=N)Nc1ccc(Cl)cc1)Nc1ccc(Cl)cc1 [chlorhexidine gluconate] |  |  |  |  |  |  |  |  | 12.7 | could not be calculated |  | hemolytic activity ([9]; 0.05 %): 9.3%; hemolytic activity ([9]; 0.1 %): 75.8%
[H]/N=C(\N/C(=N/[H])NCCCCCCNC(=N)NC(=N)Nc1ccc(Cl)cc1)Nc1ccc(Cl)cc1 [chlorhexidine] | 2 (≈ 3.96 µM) | 0.5 (≈ 0.989 µM) | 1 (≈ 1.98 µM) | 4 (≈ 7.91 µM) | 4 (≈ 7.91 µM) | 2 (≈ 3.96 µM) | 16 (≈ 31.7 µM) | 4 (≈ 7.91 µM) | 45.4 | 43.0 μg/cm^2 | 2 (≈ 3.96 µM) | Calcein Efflux Rate (%) Virus Composition Artificial Membrane ([10]; 1 μM (0.51 μg/mL)): 6.5%; Calcein Efflux Rate (%) Virus Composition Artificial Membrane ([10]; 2 μM (1.01 μg/mL)): 15.9%; Calcein Efflux Rate (%) Virus Composition Artificial Membrane ([10]; 4 μM (2.02 μg/mL)): 39.8%; Calcein Efflux Rate (%) Virus Composition Artificial Membrane ([10]; 8 μM (4.04 μg/mL)): 68.5%; Calcein Efflux Rate (%) Virus Composition Artificial Membrane ([10]; 16 μM (8.09 μg/mL)): 85.7%; Calcein Efflux Rate (%) Virus Composition Artificial Membrane ([10]; 32 μM (16.17 μg/mL)): 91.6%; Calcein Efflux Rate (%) Virus Composition Artificial Membrane ([10]; 64 μM (32.35 μg/mL)): 108.3%; Calcein Efflux Rate (%) Virus Composition Artificial Membrane ([10]; 128 μM (64.70 μg/mL)): 120.9%; concentration at which calcein was still confirmed to elute ([10]; virus composition artificial membrane): 0.51 µg/mL; Calcein Efflux Rate (%) Bacterial Composition Artificial Membrane ([11]; 1 μM (0.51 μg/mL)): −2.7%; Calcein Efflux Rate (%) Bacterial Composition Artificial Membrane ([11]; 2 μM (1.01 μg/mL)): 2.8%; Calcein Efflux Rate (%) Bacterial Composition Artificial Membrane ([11]; 4 μM (2.02 μg/mL)): 11.5%; Calcein Efflux Rate (%) Bacterial Composition Artificial Membrane ([11]; 8 μM (4.04 μg/mL)): 54.0%; Calcein Efflux Rate (%) Bacterial Composition Artificial Membrane ([11]; 16 μM (8.09 μg/mL)): 91.9%; Calcein Efflux Rate (%) Bacterial Composition Artificial Membrane ([11]; 32 μM (16.17 μg/mL)): 95.1%; Calcein Efflux Rate (%) Bacterial Composition Artificial Membrane ([11]; 64 μM (32.35 μg/mL)): 92.9%; Calcein Efflux Rate (%) Bacterial Composition Artificial Membrane ([11]; 128 μM (64.70 μg/mL)): 104.5%; concentration at which calcein was still found to elute ([11]; bacterial composition artificial membrane): 1.01 µg/mL; hemolytic activity ([9]; 0.028 %): 11.7%; hemolytic activity ([9]; 0.056 %): 30.2%
OC(Cn1cncn1)(Cn1cncn1)c1ccc(F)cc1F [fluconazole] |  |  |  |  |  |  |  |  |  |  | 0.25 (≈ 0.816 µM) | 
